Assay results from patent publication US20190337924A1, “SUBSTITUTED HYDANTOIN AND THIOHYDANTOIN DERIVATIVES AS ANDROGEN RECEPTOR ANTAGONISTS” (Janssen Pharmaceutica NV, priority 2016, published 2019).
pEC50: −log10 of the molar value. Where a name gives a salt, the structure may show the parent alone. Read-outs that look alike come from different tables or passages of the source.

Target: T1, wild-type Androgen Receptor (AR-wt) (Homo sapiens, UniProt P10275)
T1 construct: expressed in transfected cells; host or cells: LNCaP
T1 sequence (P10275 1-920): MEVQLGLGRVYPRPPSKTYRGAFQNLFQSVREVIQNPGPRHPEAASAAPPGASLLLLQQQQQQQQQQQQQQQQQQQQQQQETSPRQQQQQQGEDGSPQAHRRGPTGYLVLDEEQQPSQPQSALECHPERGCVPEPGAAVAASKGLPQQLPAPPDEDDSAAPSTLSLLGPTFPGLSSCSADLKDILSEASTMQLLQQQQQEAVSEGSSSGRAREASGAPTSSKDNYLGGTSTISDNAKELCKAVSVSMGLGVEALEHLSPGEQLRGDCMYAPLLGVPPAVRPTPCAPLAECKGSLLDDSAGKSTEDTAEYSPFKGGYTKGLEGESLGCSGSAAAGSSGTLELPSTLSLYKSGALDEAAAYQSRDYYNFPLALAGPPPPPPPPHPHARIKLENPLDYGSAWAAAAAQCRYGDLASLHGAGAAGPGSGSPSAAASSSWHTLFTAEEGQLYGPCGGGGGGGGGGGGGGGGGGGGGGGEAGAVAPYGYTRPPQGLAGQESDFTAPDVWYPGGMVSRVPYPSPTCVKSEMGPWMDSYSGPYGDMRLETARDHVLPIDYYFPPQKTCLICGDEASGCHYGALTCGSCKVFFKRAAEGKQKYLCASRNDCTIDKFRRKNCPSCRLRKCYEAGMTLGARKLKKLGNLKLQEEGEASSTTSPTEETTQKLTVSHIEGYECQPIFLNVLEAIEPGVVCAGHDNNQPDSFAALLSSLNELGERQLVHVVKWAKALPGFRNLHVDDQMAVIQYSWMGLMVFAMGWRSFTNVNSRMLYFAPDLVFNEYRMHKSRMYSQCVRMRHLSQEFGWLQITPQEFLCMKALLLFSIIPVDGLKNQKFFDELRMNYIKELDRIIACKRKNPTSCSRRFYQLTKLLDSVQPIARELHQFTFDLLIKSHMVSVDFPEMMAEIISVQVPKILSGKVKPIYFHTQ
Assay: AR reporter assay, LNCaP-AR-wt AG (agonist mode)
Type: cell-based
Conditions: for Emax: read-out: LNCaP-AR-wt AG MAX % Stim
Source text: LNCaP AR (cs) and LNCaP F876L luciferase cell lines were generated by transduction of each cell line (description of cell line generation Joseph J D, Lu N, Qian J, Sensintaffar J, Shao G, Brigham D, Moon M, Maneval E C, Chen I, Darimont B, Hager J H. A clinically relevant androgen receptor mutation confers resistance to second-generation antiandrogens enzalutamide and ARN-509. Cancer Discov 2013; 3:1020-1029) with an Androgen Response Element Firefly Luciferase lentiviral construct at an MOI (multiplicity of infection) of 50 following the manufacturer's instructions (Qiagen). A stable pooled-population cell line was generated using puromycin (Life Technologies) selection at 1:10,000 v/v. The protocol below was used for both cell lines and for testing of the compounds of Formula (I) of the present invention.
LNCaP cells were grown to about 80% confluence, media removed and cells rinsed in Hank's balanced salt solution prior to separation from the plate with 0.05% Trypsin EDTA. Cells were lifted and trypsin negated in complete CSS (charcoal stripped serum) culture media. CSS was maintained on cells for 24 h prior to assay, at which time 5,000 cells/[…] were seeded in Greiner 384 well White/White Tissue Culture Treated Plates and incubated for a further 1-2 hours at 37° C., 5% CO2, prior to addition of 10 μL of 4× Test Compounds (compounds described herein) or Assay Controls (all diluted in complete media containing 10% css). A further 10 μL of 4× R-1881 Agonist Challenge (antagonist assay) or Buffer (agonist assay) was then added (all diluted in complete media containing 10% css). Agonist challenge was at 400 pM for WT assay and 600 pM for F876L assay. Plates containing cells and compounds herein were incubated for a further 20-24 hours at 37° C., 5% CO2 before addition of 40 μL/well of Steady-Glo Luciferase Assay System Reagent (Promega#E2520). After 1 h, plates were read for luminescence on a BMG Pherastar.
((Sample RLU−Ave Low Control RLU[DMSO/Buffer])/(Ave High Control RLU [1 μM R-1881]—Ave Low Control RLU[DMSO/Buffer]))*100.
EC/IC50 calculations were achieved utilizing calculated RLU data and data fitting macros. Data were fit using least-squares methods to the following formula: […]
As used herein: • pIC50 is defined as −Log10(IC50 expressed in [Molar]). • pEC50 is defined as −Log10(EC50 expressed in [Molar]). • MAX % Inh is defined as the maximum % inhibition of R1881 control response observed for a compound over the tested concentration range. • MAX % Stim is defined as the maximum % stimulation (agonist response) observed for a compound over the tested concentration range. • LNCaP-AR-wt ANT refers to the reporter assay using LNCaP cells stably transfected with the Androgen Response Element Firefly Luciferase lentiviral construct and wild-type Androgen Receptor (AR-wt) in Antagonist mode. • LNCaP-AR-wt AG refers to the reporter assay using LNCaP cells stably transfected with the Androgen Response Element Firefly Luciferase lentiviral construct and wild-type Androgen Receptor (AR-wt) in Agonist mode. • LNCaP-AR-F876L ANT refers to the reporter assay using LNCaP cells stably transfected with the Androgen Response Element Firefly Luciferase lentiviral construct and F876L mutant Androgen Receptor (AR-F876L) in Antagonist mode. • LNCaP-AR-F876L AG refers to the reporter assay using LNCaP cells stably transfected with the Androgen Response Element Firefly Luciferase lentiviral construct and F876L mutant Androgen Receptor (AR-F876L) in Agonist mode.

Q: How did the pEC50 turn out when `CN1CCC(Oc2ccc(N3C(=S)N(c4ccc(C#N)c(C(F)(F)F)c4)C(=O)C34CCC4)cn2)CC1` [Compound 14, 4-(5-(6-((1-Methylpiperidin-4-yl)oxy)pyridin-3-yl)-8-oxo-6-thioxo-5,7-diazaspiro[3.4]octan-7-yl)-2-(trifluoromethyl)benzonitrile] was run?
A: < 4.82

Q: What about the Emax of the same compound?
A: 0.2%

Q: With `CC1(C)C(=O)N(c2ccc(C#N)c(Cl)c2)C(=S)N1c1ccc(OC2CCNCC2)cc1` [Compound 7, 2-Chloro-4-(4,4-dimethyl-5-oxo-3-(4-(piperidin-4-yloxy)phenyl)-2-thioxoimidazolidin-1-yl)benzonitrile hydrochloride] as the compound, how does the pEC50 read?
A: < 4.82

Q: And the Emax?
A: 0%

Q: `N#Cc1ccc(N2C(=O)C3(CCC3)N(c3ccc(OC4CCNCC4)nc3)C2=S)cc1Cl` [Compound 23, 2-Chloro-4-(8-oxo-5-(6-(piperidin-4-yloxy)pyridin-3-yl)-6-thioxo-5,7-diazaspiro[3.4]octan-7-yl)benzonitrile hydrochloride] was tested. Which pEC50 did it give?
A: < 4.82

Q: What about the Emax of the same compound?
A: 0.9%

Q: What does the source list for `CN1CCC(Oc2ccc(N3C(=S)N(c4ccc(C#N)c(Cl)c4)C(=O)C3(C)C)cn2)CC1` [Compound 10, 2-Chloro-4-(4,4-dimethyl-3-(6-((1-methylpiperidin-4-yl)oxy)pyridin-3-yl)-5-oxo-2-thioxoimidazolidin-1-yl)benzonitrile hydrochloride]?
A: pEC50: < 4.82; Emax: 0.1%

Q: With `CC1(C)C(=O)N(c2ccc(C#N)c(C(F)(F)F)c2)C(=S)N1c1ccc(OC2CCNCC2)cc1` [Compound 1, 4-(4,4-Dimethyl-5-oxo-3-(4-(piperidin-4-yloxy)phenyl)-2-thioxoimidazolidin-1-yl)-2-(trifluoromethyl)benzonitrile] as the compound, how does the pEC50 read?
A: < 4.82

Q: And the Emax?
A: 0.6%

Q: `CC1(C)C(=O)N(c2ccc(C#N)c(Cl)c2)C(=S)N1c1ccc(OC2CCNCC2)nc1` [Compound 9, 2-Chloro-4-(4,4-dimethyl-5-oxo-3-(6-(piperidin-4-yloxy)pyridin-3-yl)-2-thioxoimidazolidin-1-yl)benzonitrile hydrochloride] was tested. Which pEC50 did it give?
A: < 4.82

Q: And the Emax?
A: -0.2%

Q: Which results are given for `N#Cc1ccc(N2C(=O)C3(CCC3)N(c3ccc(OC4CCNCC4)cc3)C2=S)cc1Cl` [Compound 21, 2-Chloro-4-(8-oxo-5-(4-(piperidin-4-yloxy)phenyl)-6-thioxo-5,7-diazaspiro[3.4]octan-7-yl)benzonitrile]?
A: pEC50: < 4.82; Emax: 0.1%

Q: `CN1CCC(Oc2ccc(N3C(=S)N(c4ccc(C#N)c(Cl)c4)C(=O)C34CCC4)cn2)CC1` [Compound 24, 2-Chloro-4-(5-(6-((1-methylpiperidin-4-yl)oxy)pyridin-3-yl)-8-oxo-6-thioxo-5,7-diazaspiro[3.4]octan-7-yl)benzonitrile hydrochloride] was tested. Which pEC50 did it give?
A: < 4.82

Q: And the Emax?
A: 0.3%

Q: How did the pEC50 turn out when `CN1CCC(Oc2ccc(N3C(=S)N(c4ccc(C#N)c(Cl)c4)C(=O)C34CCC4)cc2)CC1` [Compound 22, 2-Chloro-4-(5-(4-((1-methylpiperidin-4-yl)oxy)phenyl)-8-oxo-6-thioxo-5,7-diazaspiro[3.4]octan-7-yl)benzonitrile] was run?
A: < 4.82

Q: What about the Emax of the same compound?
A: -0.2%

Q: Which results are given for `CN1CCC(Oc2ccc(N3C(=S)N(c4ccc(C#N)c(C(F)(F)F)c4)C(=O)C3(C)C)cc2)CC1` [Compound 2, 4-(4,4-Dimethyl-3-(4-((1-methylpiperidin-4-yl)oxy)phenyl)-5-oxo-2-thioxoimidazolidin-1-yl)-2-(trifluoromethyl)benzonitrile hydrochloride]?
A: pEC50: < 4.82; Emax: -0.2%

Q: With `CC1(C)C(=O)N(c2ccc(C#N)c(C(F)(F)F)c2)C(=S)N1c1cnc(OC2CCNCC2)nc1` [Compound 5, 4-(4,4-Dimethyl-5-oxo-3-(2-(piperidin-4-yloxy)pyrimidin-5-yl)-2-thioxoimidazolidin-1-yl)-2-(trifluoromethyl)benzonitrile] as the compound, how does the pEC50 read?
A: < 4.82

Q: What about the Emax of the same compound?
A: 0.1%

Q: How did the pEC50 turn out when `N#Cc1ccc(N2C(=O)C3(CCC3)N(c3ccc(OC4CCNCC4)cc3)C2=S)cc1C(F)(F)F` [Compound 11, 4-(8-Oxo-5-(4-(piperidin-4-yloxy)phenyl)-6-thioxo-5,7-diazaspiro[3.4]octan-7-yl)-2-(trifluoromethyl)benzonitrile] was run?
A: < 4.82

Q: What about the Emax of the same compound?
A: 0.1%

Q: Which results are given for `CC1(C)C(=O)N(c2ccc(C#N)c(C(F)(F)F)c2)C(=S)N1c1ccc(OC2CCNCC2)nc1` [Compound 3, 4-(4,4-Dimethyl-5-oxo-3-(6-(piperidin-4-yloxy)pyridin-3-yl)-2-thioxoimidazolidin-1-yl)-2-(trifluoromethyl)benzonitrile hydrochloride]?
A: pEC50: < 4.82; Emax: 0.5%

Q: With `COc1cc(N2C(=O)C3(CCC3)N(c3ccc(OC4CCN(C)CC4)cc3)C2=S)ccc1C#N` [Compound 19, 2-Methoxy-4-(5-(4-((1-methylpiperidin-4-yl)oxy)phenyl)-8-oxo-6-thioxo-5,7-diazaspiro[3.4]octan-7-yl)benzonitrile] as the compound, how does the pEC50 read?
A: < 4.82

Q: What about the Emax of the same compound?
A: -0.1%

Q: What does the source list for `CN1CCC(Oc2ccc(N3C(=S)N(c4ccc(C#N)c(C(F)(F)F)c4)C(=O)C34CCC4)cc2)CC1` [Compound 12, 4-(5-(4-((1-Methylpiperidin-4-yl)oxy)phenyl)-8-oxo-6-thioxo-5,7-diazaspiro[3.4]octan-7-yl)-2-(trifluoromethyl)benzonitrile]?
A: pEC50: < 4.82; Emax: 0.4%

Q: `CN1CCC(Oc2ccc(N3C(=S)N(c4ccc(C#N)c(Cl)c4)C(=O)C3(C)C)cc2)CC1` [Compound 8, 2-Chloro-4-(4,4-dimethyl-3-(4-((1-methylpiperidin-4-yl)oxy)phenyl)-5-oxo-2-thioxoimidazolidin-1-yl)benzonitrile hydrochloride] was tested. Which pEC50 did it give?
A: < 4.82

Q: What about the Emax of the same compound?
A: 0.1%

Q: With `N#Cc1ccc(N2C(=O)C3(CCC3)N(c3cnc(OC4CCNCC4)nc3)C2=S)cc1C(F)(F)F` [Compound 15, 4-(8-Oxo-5-(2-(piperidin-4-yloxy)pyrimidin-5-yl)-6-thioxo-5,7-diazaspiro[3.4]octan-7-yl)-2-(trifluoromethyl)benzonitrile] as the compound, how does the pEC50 read?
A: < 4.82

Q: And the Emax?
A: -0.2%

Q: With `Cc1cc(N2C(=O)C3(CCC3)N(c3ccc(OC4CCN(C)CC4)nc3)C2=S)ccc1C#N` [Compound 18, 2-Methyl-4-(5-(6-((1-methylpiperidin-4-yl)oxy)pyridin-3-yl)-8-oxo-6-thioxo-5,7-diazaspiro[3.4]octan-7-yl)benzonitrile] as the compound, how does the EC50 (agonist mode (buffer, no R-1881), -Log10(EC50 in Molar), read-out: LNCaP-AR-wt AG pEC50 (converted)) read?
A: > 15.1 µM

Q: And the Emax?
A: 0.6%
